By melting point is commonly meant the temperature, or range, at which the solid turns liquid.

This note sets out measurements from patent US8362011B2, “Tricyclic triazolic compounds” (Laboratories del Dr. Esteve, S.A., priority 2007, dated 2013).

For the compound `c1nnn2c1COC1CNC[C@H]12` (stereo partly shown), the melting point was 217 °C (dec.). For `CCN1CC2OCc3cnnn3[C@@H]2C1` (stereo partly shown) the value was 59 to 60 °C; for `COc1ccc(CN2CC3OCc4cnnn4[C@@H]3C2)cc1` (stereo partly drawn) [Example 1, (5a,8a-trans)-7-(4-methoxybenzyl)-4,5a,6,7,8,8a-hexahydropyrrolo[3,4-b][1,2,3]triazolo[1,5-d][1,4]oxazine], 150 to 151 °C.

`CS(=O)(=O)N1CC2OCc3cnnn3[C@@H]2C1` (stereo partly drawn) [Example 14, (5a,8a-trans)-7-(methylsulfonyl)-4,5a,6,7,8,8a-hexahydropyrrolo[3,4-b][1,2,3]triazolo[1,5-d][1,4]oxazine]: the melting point was 204 to 206 °C. For the compound `O=S(=O)(c1ccc(Br)cc1)N1CC2OCc3cnnn3[C@@H]2C1` (stereo partly drawn) [Example 15, (5a,8a-trans)-7-(4-bromophenylsulfonyl)-4,5a,6,7,8,8a-hexahydro pyrrolo[3,4-b][1,2,3]triazolo[1,5-d][1,4]oxazine], the melting point was in the range of 220 to 221 °C. `O=S(=O)(c1ccccc1)N1CC2OCc3cnnn3[C@@H]2C1` (stereo partly drawn) [Example 16, (5a,8a-trans)-7-(phenylsulfonyl)-4,5a,6,7,8,8a-hexahydropyrrolo[3,4-b][1,2,3]triazolo[1,5-d][1,4]oxazine] yielded a melting point of 168 to 170 °C. For `O=S(=O)(c1ccccc1F)N1CC2OCc3cnnn3[C@@H]2C1` (stereo partly drawn) [Example 17, (5a,8a-trans)-7-(2-fluorophenylsulfonyl)-4,5a,6,7,8,8a-hexahydro pyrrolo[3,4-b][1,2,3]triazolo[1,5-d][1,4]oxazine] the value was 178 to 180 °C; for `O=S(=O)(c1ccc(F)cc1)N1CC2OCc3cnnn3[C@@H]2C1` (stereo partly drawn) [Example 18, (5a,8a-trans)-7-(4-fluorophenylsulfonyl)-4,5a,6,7,8,8a-hexahydro pyrrolo[3,4-b][1,2,3]triazolo[1,5-d][1,4]oxazine], 208 to 209 °C. Regarding `CS(=O)(=O)N1CC2OCc3c(-c4ccccc4)nnn3[C@@H]2C1` (stereo partly shown) [Example 19, (5a,8a)-7-(methylsulfonyl)-3-phenyl-4,5a,6,7,8,8a-hexahydropyrrolo[3,4-b][1,2,3]triazolo[1,5-d][1,4]oxazine], the melting point was in the range of 293 to 295 °C. For `O=S(=O)(c1ccc(F)cc1)N1CC2OCc3c(-c4ccccc4)nnn3[C@@H]2C1` (stereo partly drawn) [Example 20, (5a,8a-trans)-7-(4-fluorophenylsulfonyl)-3-phenyl-4,5a,6,7,8,8a-hexa hydropyrrolo[3,4-b][1,2,3]triazolo[1,5-d][1,4]oxazine] the value was 287 to 288 °C; for `O=C(c1ccccc1F)N1CC2OCc3cnnn3[C@@H]2C1` (stereo partly drawn) [Example 21, (2-fluorophenyl)((5a,8a-trans)-5a,6,8,8a-tetrahydropyrrolo[3,4-b][1,2,3]triazolo[1,5-d][1,4]oxazin-7(4H)-yl)methanone], 188 to 190 °C.

In the case of `O=C(c1ccccc1)N1CC2OCc3cnnn3[C@@H]2C1` (stereo partly drawn) [Example 22, phenyl((5a,8a-trans)-5a,6,8,8a-tetrahydropyrrolo[3,4-b][1,2,3]triazolo[1,5-d][1,4]oxazin-7(4H)-yl)methanone], the melting point is 173 to 174 °C. On to `O=C(CCc1ccccc1)N1CC2OCc3cnnn3[C@@H]2C1` (stereo partly drawn) [Example 24, 3-phenyl-1-((5a,8a-trans)-5a,6,8,8a-tetrahydropyrrolo[3,4-b][1,2,3]triazolo[1,5-d][1,4]oxazin-7(4H)-yl)propan-1-one], for which the melting point is 134 to 135 °C. `O=C(c1cccs1)N1CC2OCc3cnnn3[C@@H]2C1` (stereo partly drawn) [Example 26, ((5a,8a-trans)-5a,6,8,8a-tetrahydropyrrolo[3,4-b][1,2,3]triazolo[1,5-d][1,4]oxazin-7(4H)-yl)(thiophen-2-yl)methanone] returned a melting point of 186 to 188 °C.

Consider `O=C(c1ccccc1)N1CC2OCc3c(-c4ccccc4)nnn3[C@@H]2C1` (stereo partly drawn) [Example 27, phenyl((5a,8a-trans)-3-phenyl-5a,6,8,8a-tetrahydropyrrolo[3,4-b][1,2,3]triazolo[1,5-d][1,4]oxazin-7(4H)-yl)methanone], for which the melting point was 237 to 239 °C. For `O=C(c1cccs1)N1CC2OCc3c(-c4ccccc4)nnn3[C@@H]2C1` (stereo partly drawn) [Example 30, ((5a,8a-trans)-3-phenyl-5a,6,8,8a-tetrahydropyrrolo[3,4-b][1,2,3]triazolo[1,5-d][1,4]oxazin-7(4H)-yl)(thiophen-2-yl)methanone], the melting point fell in the range of 248 to 249 °C.

In the case of `CCCCNC(=O)N1CC2OCc3cnnn3[C@@H]2C1` (stereo partly drawn) [Example 31, (5a,8a-trans)-N-butyl-5a,6,8,8a-tetrahydropyrrolo[3,4-b][1,2,3]triazolo[1,5-d][1,4]oxazine-7(4H)-carboxamide], the melting point is 194 to 195 °C.

On to `O=C(Nc1ccccc1)N1CC2OCc3cnnn3[C@@H]2C1` (stereo partly drawn) [Example 32, (5a,8a-trans)-N-phenyl-5a,6,8,8a-tetrahydropyrrolo[3,4-b][1,2,3] triazolo[1,5-d][1,4]oxazine-7(4H)-carboxamide], for which the melting point was 227 to 228 °C. `O=C(Nc1ccccc1)N1CC2OCc3c(-c4ccccc4)nnn3[C@@H]2C1` (stereo partly drawn) [Example 33, (5a,8a-trans)-N,3-diphenyl-5a,6,8,8a-tetrahydropyrrolo[3,4-b][1,2,3] triazolo[1,5-d][1,4]oxazine-7(4H)-carboxamide] had a melting point of 275 to 277 °C. For `O=C(OCc1ccccc1)N1CC2OCc3c(-c4ccccc4)nnn3[C@@H]2C1` (stereo partly drawn) [Example 34, (5a,8a-trans)-benzyl3-phenyl-5a,6,8,8a-tetrahydropyrrolo[3,4-b][1,2,3] triazolo[1,5-d][1,4]oxazine-7(4H)-carboxylate] the value was 209 to 212 °C; for `c1cnc(N2CC3OCc4cnnn4[C@@H]3C2)nc1` (stereo partly drawn) [Example 35, (5a,8a-trans)-7-(pyrimidin-2-yl)-4,5a,6,7,8,8a-hexahydropyrrolo[3,4-b][1,2,3]triazolo[1,5-d][1,4]oxazine], 256 to 257 °C. Compound `c1ccc(-c2nnn3c2COC2CN(c4ncccn4)C[C@H]23)cc1` (stereo partly drawn) [Example 40, (5a,8a-trans)-3-phenyl-7-(pyrimidin-2-yl)-4,5a,6,7,8,8a-hexahydro pyrrolo[3,4-b][1,2,3]triazolo[1,5-d][1,4]oxazine] showed a melting point of 256 to 257 °C. In turn, `c1ccc(N2CC3OCc4cnnn4[C@@H]3C2)cc1` (stereo partly drawn) [Example 42, (5a,8a-trans)-7-phenyl-4,5a,6,7,8,8a-hexahydropyrrolo[3,4-b][1,2,3] triazolo[1,5-d][1,4]oxazine] displayed a melting point of 222 to 223 °C. Regarding `Clc1ccc(N2CC3OCc4cnnn4[C@@H]3C2)cc1` (stereo partly drawn) [Example 43, (5a,8a-trans)-7-(4-chlorophenyl)-4,5a,6,7,8,8a-hexahydropyrrolo[3,4-b][1,2,3]triazolo[1,5-d][1,4]oxazine], the melting point was 238 °C (dec.). For `c1ccc(N2CC3OCc4cnnn4[C@@H]3C2)nc1` (stereo partly drawn) [Example 44, (5a,8a-trans)-7-(pyridin-2-yl)-4,5a,6,7,8,8a-hexahydropyrrolo[3,4-b][1,2,3]triazolo[1,5-d][1,4]oxazine] the value was 216 °C (dec.). With `c1ccc(-c2nnn3c2COC2CN(c4ccccc4)C[C@H]23)cc1` (stereo partly drawn) [Example 45, (5a,8a-trans)-3,7-diphenyl-4,5a,6,7,8,8a-hexahydropyrrolo[3,4-b][1,2,3] triazolo[1,5-d][1,4]oxazine], the melting point fell in the range of 256 to 257 °C. For `CC(C)(C)OC(=O)N1C[C@@H]2OCc3cnnn3[C@H]2C1` [Example 53, (5aS,8aS)-tert-butyl 5a,6,8,8a-tetrahydropyrrolo[3,4-b][1,2,3]triazolo[1,5-d][1,4]oxazine-7(4H)-carboxylate] the value was 155 to 157 °C; for `Cc1nnn2c1CO[C@H]1CN(C(=O)OC(C)(C)C)C[C@@H]12` [Example 54, (5aS,8aS)-tert-butyl 3-methyl-5a,6,8,8a-tetrahydropyrrolo[3,4-b][1,2,3] triazolo[1,5-d][1,4]oxazine-7(4H)-carboxylate], 195 to 196 °C; for `CC(C)(C)OC(=O)N1C[C@@H]2OCc3c(-c4ccccc4)nnn3[C@H]2C1` [Example 55, (5aS,8aS)-tert-butyl 3-phenyl-5a,6,8,8a-tetrahydropyrrolo[3,4-b][1,2,3] triazolo[1,5-d][1,4]oxazine-7(4H)-carboxylate], 236 to 237 °C. Turning to `CC(C)(C)OC(=O)N1C[C@@H]2OCc3c(-c4cccc(F)c4)nnn3[C@H]2C1` [Example 56, (5aS,8aS)-tert-butyl 3-(3-fluorophenyl)-5a,6,8,8a-tetrahydropyrrolo[3,4-b][1,2,3]triazolo[1,5-d][1,4]oxazine-7(4H)-carboxylate], the melting point was in the range of 249 to 250 °C. As to `CC(C)(C)OC(=O)N1CC2OCc3c(-c4ccc(C(F)(F)F)cc4)nnn3[C@H]2C1` (stereo partly drawn) [Example 57, (5aS,8aS)-tert-butyl-3-(4-(trifluoromethyl)phenyl)-5a,6,8,8a-tetrahydropyrrolo[3,4-b][1,2,3]triazolo[1,5-c][1,4]oxazine-7(4H)-carboxylate], the melting point fell in the range of 238 to 239 °C.
